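Grown in 96-well plates, cells were treated for 48 hours with each compound at five concentrations. Insufficient inhibition: endpoint recorded as highest concentration tested. At the TGI there is no net growth.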
Experiments:
Assay in all cases: NCI tumour cell line growth inhibition, 48 h
DMS 114 small cell lung = tested on: DMS 114 small cell lung
SK-MEL-5 melanoma = tested on: SK-MEL-5 melanoma
SK-MEL-28 melanoma = tested on: SK-MEL-28 melanoma
TK-10 renal = tested on: TK-10 renal
KM12 colon = tested on: KM12 colon
HOP-62 NSCLC = tested on: HOP-62 NSCLC
SF-268 CNS = tested on: SF-268 CNS
RXF 393 renal = tested on: RXF 393 renal
M19-MEL melanoma = tested on: M19-MEL melanoma
NCI-H226 lung = tested on: NCI-H226 lung
UO-31 renal = tested on: UO-31 renal
DMS 273 small cell lung = tested on: DMS 273 small cell lung
SN12C renal = tested on: SN12C renal
CAKI-1 renal = tested on: CAKI-1 renal
UACC-257 melanoma = tested on: UACC-257 melanoma
SF-539 CNS = tested on: SF-539 CNS
HCT-15 colon = tested on: HCT-15 colon
MALME-3M melanoma = tested on: MALME-3M melanoma
HL-60(TB) leukemia = tested on: HL-60(TB) leukemia
UACC-62 melanoma = tested on: UACC-62 melanoma
MOLT-4 leukemia = tested on: MOLT-4 leukemia
HOP-92 NSCLC = tested on: HOP-92 NSCLC
HT29 colon = tested on: HT29 colon
SF-295 CNS = tested on: SF-295 CNS
SK-OV-3 ovarian = tested on: SK-OV-3 ovarian
M14 melanoma = tested on: M14 melanoma
EKVX NSCLC = tested on: EKVX NSCLC
HOP-18 NSCLC = tested on: HOP-18 NSCLC
NCI-H23 lung = tested on: NCI-H23 lung
COLO 205 colon = tested on: COLO 205 colon
SNB-19 CNS = tested on: SNB-19 CNS
HCT-116 colon = tested on: HCT-116 colon
786-0 renal = tested on: 786-0 renal
A549 NSCLC = tested on: A549 NSCLC
DLD-1 colon = tested on: DLD-1 colon
OVCAR-3 ovarian = tested on: OVCAR-3 ovarian
LXFL 529 NSCLC = tested on: LXFL 529 NSCLC
NCI-H460 lung = tested on: NCI-H460 lung
OVCAR-8 ovarian = tested on: OVCAR-8 ovarian
CCRF-CEM leukemia = tested on: CCRF-CEM leukemia
A498 renal = tested on: A498 renal
OVCAR-4 ovarian = tested on: OVCAR-4 ovarian
SNB-75 CNS = tested on: SNB-75 CNS
XF 498 CNS = tested on: XF 498 CNS
KM20L2 colon = tested on: KM20L2 colon
K-562 leukemia = tested on: K-562 leukemia
RPMI-8226 leukemia = tested on: RPMI-8226 leukemia
SNB-78 CNS = tested on: SNB-78 CNS
NCI-H522 lung = tested on: NCI-H522 lung
HCC-2998 colon = tested on: HCC-2998 colon
ACHN renal = tested on: ACHN renal
OVCAR-5 ovarian = tested on: OVCAR-5 ovarian
LOX IMVI melanoma = tested on: LOX IMVI melanoma
SW-620 colon = tested on: SW-620 colon
SK-MEL-2 melanoma = tested on: SK-MEL-2 melanoma
U251 CNS = tested on: U251 CNS
IGROV1 ovarian = tested on: IGROV1 ovarian

O=C1c2ccccc2C(=O)c2c(NCCNCCO)ccc(O)c21
TGI (DMS 114 small cell lung): 17.4 µM
TGI (SK-MEL-5 melanoma): 12.7 µM
TGI (SK-MEL-28 melanoma): 11.4 µM
TGI (TK-10 renal): 15.3 µM
TGI (KM12 colon): 8.1 µM
TGI (HOP-62 NSCLC): 14.5 µM
TGI (SF-268 CNS): 13.1 µM
TGI (RXF 393 renal): 7.92 µM
TGI (M19-MEL melanoma): 12.4 µM
TGI (NCI-H226 lung): 6.56 µM
TGI (UO-31 renal): 5.58 µM
TGI (DMS 273 small cell lung): 10.7 µM
TGI (SN12C renal): 12.8 µM
TGI (CAKI-1 renal): 11.5 µM
TGI (UACC-257 melanoma): 13.5 µM
TGI (SF-539 CNS): 12.1 µM
TGI (HCT-15 colon): 13.7 µM
TGI (MALME-3M melanoma): 11.7 µM
TGI (HL-60(TB) leukemia): 8.77 µM
TGI (UACC-62 melanoma): 13.6 µM
TGI (MOLT-4 leukemia): 7.49 µM
TGI (HOP-92 NSCLC): 13.4 µM
TGI (HT29 colon): 10.2 µM
TGI (SF-295 CNS): 15.8 µM
TGI (SK-OV-3 ovarian): 13.8 µM
TGI (M14 melanoma): 15.8 µM
TGI (EKVX NSCLC): 14 µM
TGI (HOP-18 NSCLC): 21.4 µM
TGI (NCI-H23 lung): 12 µM
TGI (COLO 205 colon): 10.3 µM
TGI (SNB-19 CNS): 14.2 µM
TGI (HCT-116 colon): 12.9 µM
TGI (786-0 renal): 15.9 µM
TGI (A549 NSCLC): 11.2 µM
TGI (DLD-1 colon): 15.6 µM
TGI (OVCAR-3 ovarian): 19.5 µM
TGI (LXFL 529 NSCLC): 15.5 µM
TGI (NCI-H460 lung): 6.85 µM
TGI (OVCAR-8 ovarian): 13.5 µM
TGI (CCRF-CEM leukemia): 17.3 µM
TGI (A498 renal): 19.4 µM
TGI (OVCAR-4 ovarian): 6.53 µM
TGI (SNB-75 CNS): 15.7 µM
TGI (XF 498 CNS): 18.8 µM
TGI (KM20L2 colon): 12.3 µM
TGI (K-562 leukemia): > 100 µM
TGI (RPMI-8226 leukemia): 11.7 µM
TGI (SNB-78 CNS): 20.2 µM
TGI (NCI-H522 lung): 11.8 µM
TGI (HCC-2998 colon): 17.8 µM
TGI (ACHN renal): 11.2 µM
TGI (OVCAR-5 ovarian): 8.33 µM
TGI (LOX IMVI melanoma): 2.85 µM
TGI (SW-620 colon): 12.9 µM
TGI (SK-MEL-2 melanoma): 14.7 µM
TGI (U251 CNS): 14.7 µM
TGI (IGROV1 ovarian): 13.4 µM

From PubChem BioAssay (NCI)
